The source of these data is ChEMBL document CHEMBL4689842, “EUbOPEN Chemogenomics Library wave 1” (2021).

SMILES strings stand for the structures.

Holding throughout (assay type): toxicity, cell-based
The test system of data set [1] is Fibroblast. As to the kind of experiment: Incucyte cell viability with human fibroblast. Conditions: 10 µM, compound concentration 10 uM.
The test system of data set [2] is U2OS. Nature of the data set: Incucyte cell viability with U2OS. Particulars: human, 10 µM, compound concentration 10 uM.
For data set [3], the system named is HEK-293T. Nature of the data set: Incucyte cell viability with HEK293T. Particulars: human, 10 µM, compound concentration 10 uM.
Setting [4] is: 0 h, replicate number 1, timepoint 0 hours.
The mark [5] stands for this setting: 6 h, replicate number 2, timepoint 6 hours.
Setting [6] is: 12 h, replicate number 1, timepoint 12 hours.
[7] abbreviates: 18 h, replicate number 1, timepoint 18 hours.
[8] abbreviates: 24 h, replicate number 1, timepoint 24 hours.
Setting [9] is: 6 h, replicate number 1, timepoint 6 hours.
[10] abbreviates: 18 h, replicate number 2, timepoint 18 hours.
Where [11] appears, read: 24 h, replicate number 2, timepoint 24 hours.
Setting [12] is: 12 h, replicate number 2, timepoint 12 hours.
Where [13] appears, read: 0 h, replicate number 2, timepoint 0 hours.
Also: filed as whole numbers so only -1 and 0 and 1 occur.

Turning to `CC(C)(O)c1ccccc1CC[C@@H](SCC1(CC(=O)[O-])CC1)c1cccc(/C=C/c2ccc3ccc(Cl)cc3n2)c1.[Na+]` [MONTELUKAST SODIUM], the “Growth Rate” value is listed as 0 in data set [1] (setting [4]); 0 in data set [1] (setting [5]); 1 in data set [1] (setting [6]); 1 in data set [1] (setting [7]); 1 in data set [1] (setting [8]); 0 in data set [2] (setting [4]). Further, the “Growth Rate” value in data set [2] (setting [5]) came out at 0; in data set [2] (setting [6]), 1; in data set [2] (setting [7]), 1; in data set [2] (setting [8]), 1; in data set [3] (setting [4]), 0; in data set [3] (setting [9]), 1. For the same compound, the “Growth Rate” value came to 0 in data set [3] (setting [5]); 0 in data set [3] (setting [6]); 1 in data set [3] (setting [7]); 0 in data set [3] (setting [10]); 1 in data set [3] (setting [8]); 0 in data set [3] (setting [11]).
`COc1ccc(-c2ccc3cc(C(=O)O)ccc3c2)cc1C12CC3CC(CC(C3)C1)C2`: the “Growth Rate” value in data set [1] (setting [4]) is on record as 1; in data set [1] (setting [9]) it was 0; in data set [1] (setting [6]) it was 0; in data set [1] (setting [7]), 0; in data set [1] (setting [10]), 1; in data set [1] (setting [8]), 0. Besides, the “Growth Rate” value is given as 0 in data set [2] (setting [4]); 0 in data set [2] (setting [5]); 1 in data set [2] (setting [6]); 0 in data set [2] (setting [12]); 0 in data set [2] (setting [7]); 0 in data set [2] (setting [8]). Also, the “Growth Rate” value was 0 in data set [3] (setting [4]); 1 in data set [3] (setting [9]); 0 in data set [3] (setting [5]); 0 in data set [3] (setting [6]); 0 in data set [3] (setting [7]); 1 in data set [3] (setting [10]). In addition, the “Growth Rate” value in data set [3] (setting [8]) turned out to be 0.
For the compound `Cc1cnc(-c2cc(Cl)ccc2F)cc1-n1c(=O)n(CC(N)=O)c2ccccc21` [Al11], the “Growth Rate” value was found to be 0 in data set [1] (setting [4]); 1 in data set [1] (setting [9]); 1 in data set [1] (setting [6]); 0 in data set [1] (setting [7]); 1 in data set [1] (setting [8]); 0 in data set [1] (setting [11]). For the same compound, the “Growth Rate” value worked out at 0 in data set [2] (setting [4]); 1 in data set [2] (setting [9]); 0 in data set [2] (setting [5]); 1 in data set [2] (setting [6]); 0 in data set [2] (setting [12]); 1 in data set [2] (setting [7]). In addition, the “Growth Rate” value in data set [2] (setting [8]) was found to be 1; in data set [3] (setting [4]), 0; in data set [3] (setting [13]) it was 1; in data set [3] (setting [5]) it was 0; in data set [3] (setting [12]), 1; in data set [3] (setting [7]) it was 1. Further, in data set [3] (setting [8]), the “Growth Rate” value is 1.
Consider `O=C([O-])c1cc2ccccc2c(Cc2c(O)c(C(=O)[O-])cc3ccccc23)c1O.[Na+].[Na+]`, for which the “Growth Rate” value was 0 in data set [1] (setting [4]); 1 in data set [1] (setting [9]); 1 in data set [1] (setting [6]); 1 in data set [1] (setting [7]); 1 in data set [1] (setting [8]); 0 in data set [2] (setting [4]). The “Growth Rate” value in data set [2] (setting [5]) was found to be 1; in data set [2] (setting [6]), 0; in data set [2] (setting [12]), 1; in data set [2] (setting [7]) it was 0; in data set [2] (setting [8]), 0; in data set [2] (setting [11]) it was 1. Besides, the “Growth Rate” value in data set [3] (setting [4]) is reported as 0; in data set [3] (setting [9]) it was 1; in data set [3] (setting [6]), 1; in data set [3] (setting [7]), 1; in data set [3] (setting [8]), 1.
`CSc1cccnc1N1CCN(Cc2nc3ccccc3[nH]2)CC1` [A-769]: the “Growth Rate” value in data set [1] (setting [4]) came out at 0; in data set [1] (setting [13]) it was 1; in data set [1] (setting [9]), 0; in data set [1] (setting [5]) it was 1; in data set [1] (setting [6]), 0; in data set [1] (setting [12]), 1. Further, the “Growth Rate” value in data set [1] (setting [7]) is given as 0; in data set [1] (setting [8]), 0; in data set [2] (setting [9]), 0; in data set [2] (setting [6]), 0; in data set [2] (setting [7]), 0; in data set [2] (setting [10]), 1. Moreover, the “Growth Rate” value in data set [2] (setting [8]) was 1; in data set [3] (setting [4]), 1; in data set [3] (setting [13]), 0; in data set [3] (setting [9]), 0; in data set [3] (setting [6]), 0; in data set [3] (setting [7]), 0. Moreover, the “Growth Rate” value in data set [3] (setting [8]) is 0.
